Here are results for 21 compounds from patent publication US7524964B2, “Tetrahydrothiopyrano pyrazole cannabinoid modulators” (Janssen Pharmaceutica NV, priority 2005, dated 2009).

pIC50: −log10 of the molar value. Where two headings read alike, the source gives them in different places.

Assay [1] deals with T1, human CB-2 receptor (Homo sapiens, UniProt P34972).
T1 construct: expressed in transfected cells; host or cells: SK-N-MC cells, pcDNA3 CB-2 (human), semi-purified membranes
Kind of assay: Binding assay, cannabinoid CB2 receptor ([3H]-CP-55,940 displacement). To be noted: read-out: CB2 binding percent inhibition. In a few lines: (§1)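 Displacement of 0.2 nM [3H]-CP-55,940 (non-specific: 10 uM WIN 55,212) was run on semi-purified membranes of transfected SK-N-MC cells carrying human CB-1 or CB-2, 90 min, 30° C, pH 7.5. Scintillation counting; IC50 by linear regression, else % inhibition at 0.2, 1 or 10 μM.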

Assay [2] deals with human CB1 receptor (Homo sapiens, UniProt P21554). Kind of assay: Binding assay, cannabinoid CB1 receptor ([3H]-CP-55,940 displacement). More on the design: expressed in transfected cells; host or cells: SK-N-MC cells, pcDNA3 CB-1 (human), semi-purified membranes. Particulars: for inhibition at 0.2 µM: test concentration 0.2 μM (superscript a). In a few lines: as §1
Where [3] appears, read: test concentration 0.2 μM (superscript a).
[4] abbreviates: read-out: CB1 binding percent inhibition.

human CB1 receptor, sequence (P21554 whole entry): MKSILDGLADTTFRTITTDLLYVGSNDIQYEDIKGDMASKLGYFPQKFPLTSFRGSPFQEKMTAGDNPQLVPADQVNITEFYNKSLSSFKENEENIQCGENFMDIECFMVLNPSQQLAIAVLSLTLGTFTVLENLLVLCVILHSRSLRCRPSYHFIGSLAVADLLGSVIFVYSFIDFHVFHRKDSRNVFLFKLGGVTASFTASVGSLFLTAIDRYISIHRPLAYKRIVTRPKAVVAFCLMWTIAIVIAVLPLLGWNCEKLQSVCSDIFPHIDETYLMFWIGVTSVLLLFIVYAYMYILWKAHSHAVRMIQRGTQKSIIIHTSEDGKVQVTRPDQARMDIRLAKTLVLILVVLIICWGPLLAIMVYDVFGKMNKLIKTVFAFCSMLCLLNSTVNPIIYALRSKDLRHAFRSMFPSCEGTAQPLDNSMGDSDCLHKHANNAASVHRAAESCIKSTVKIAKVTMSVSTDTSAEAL
T1 sequence (P34972 whole entry): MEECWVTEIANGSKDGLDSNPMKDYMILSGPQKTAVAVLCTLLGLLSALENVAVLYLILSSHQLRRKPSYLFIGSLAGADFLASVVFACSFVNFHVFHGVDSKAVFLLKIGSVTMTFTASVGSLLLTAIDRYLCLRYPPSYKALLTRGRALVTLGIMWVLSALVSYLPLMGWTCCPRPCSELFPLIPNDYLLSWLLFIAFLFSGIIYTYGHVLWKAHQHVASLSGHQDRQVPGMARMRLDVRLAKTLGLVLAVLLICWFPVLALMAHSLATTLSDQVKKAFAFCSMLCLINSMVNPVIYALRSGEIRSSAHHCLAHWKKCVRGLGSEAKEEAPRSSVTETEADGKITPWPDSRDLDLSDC

One may read the inhibition as the percentage by which the read-out fell short of the control. By pIC50 is commonly meant the negative decadic logarithm of the IC50, by convention in mol/L. Low values mean a large IC50, high ones a small IC50. Turning to `C[C@@H](NC(=O)c1c2c(nn1-c1ccc(Cl)cc1Cl)/C(=C/c1ccc(F)cc1)CS(=O)(=O)C2)c1ccccc1` [Cpd 82, (7Z)-2-(2,4-dichloro-phenyl)-7-(4-fluoro-benzylidene)-5,5-dioxo-4,5,6,7-tetrahydro-2H-5λ^6-thiopyrano[4,3-c]pyrazole-3-carboxylic acid [(1R)-1-phenyl-ethyl]-amide], the inhibition at 0.2 µM in assay [1] (setting [3]) came to 19%. The same compound gave a pIC50 in assay [2] of 7.32.

Turning to `O=C(c1nn(-c2ccc(Cl)cc2)c2c1CS(=O)(=O)C/C2=C\c1ccc(F)cc1)N1CCCCC1` [Cpd 98, (7Z)-[1-(4-chloro-phenyl)-7-(4-fluoro-benzylidene)-5,5-dioxo-4,5,6,7-tetrahydro-1H-5λ^6-thiopyrano[4,3-c]pyrazol-3-yl]-piperidin-1-yl-methanone], the inhibition at 0.2 µM was determined as 14% in assay [1] (setting [3]) and 51% in assay [2] (setting [4]).

Take `O=C(NCc1ccccn1)c1nn(-c2ccc(Cl)cc2Cl)c2c1C[S+]([O-])C/C2=C\c1ccc(F)cc1` (stereo not drawn) [Cpd 80, (7Z)-1-(2,4-dichloro-phenyl)-7-(4-fluoro-benzylidene)-5-oxo-4,5,6,7-tetrahydro-1H-5λ^4-thiopyrano[4,3-c]pyrazole-3-carboxylic acid (pyridin-2-ylmethyl)-amide]: the inhibition at 0.2 µM came to 2% in assay [1] (setting [3]) and 21% in assay [2] (setting [4]).

Consider `C[C@H](NC(=O)c1c2c(nn1-c1ccc(Cl)cc1Cl)/C(=C/c1ccc(F)cc1)CS(=O)(=O)C2)c1ccccc1` [Cpd 86, (7Z)-2-(2,4-dichloro-phenyl)-7-(4-fluoro-benzylidene)-5,5-dioxo-4,5,6,7-tetrahydro-2H-5λ^6-thiopyrano[4,3-c]pyrazole-3-carboxylic acid [(1S)-1-phenyl-ethyl]-amide], for which the inhibition at 0.2 µM in assay [1] (setting [3]) stood at 14%. Also, in assay [2], the pIC50 was 7.68.

For the compound `O=C(N[C@H]1c2ccccc2C[C@H]1O)c1nn(-c2ccc(Cl)cc2Cl)c2c1CS(=O)(=O)C/C2=C\c1ccc(F)cc1` [Cpd 70, (7Z)-1-(2,4-dichloro-phenyl)-7-(4-fluoro-benzylidene)-5,5-dioxo-4,5,6,7-tetrahydro-1H-5λ^6-thiopyrano[4,3-c]pyrazole-3-carboxylic acid [(1S,2R)-2-hydroxy-indan-1-yl]-amide], the inhibition at 0.2 µM in assay [1] (setting [3]) was 19%. This compound showed a pIC50 in assay [2] of 7.92.

For the compound `C[C@@H](NC(=O)c1nn(-c2ccc(Cl)cc2Cl)c2c1CS(=O)(=O)C/C2=C\c1ccc(Cl)o1)C1CCCCC1` [Cpd 118, (7Z)-7-(5-chloro-furan-2-ylmethylene)-1-(2,4-dichloro-phenyl)-5,5-dioxo-4,5,6,7-tetrahydro-1H-5λ^6-thiopyrano[4,3-c]pyrazole-3-carboxylic acid [(1R)-1-cyclohexyl-ethyl]-amide], in assay [1] (setting [3]), the inhibition at 0.2 µM turned out to be 11%. In addition, the pIC50 in assay [2] was 8.10.

`O=S1(=O)Cc2c(/C=C/S(=O)(=O)NN3CCCCC3)nn(-c3ccc(F)cc3F)c2C(Cc2cccc(F)c2)C1` (stereo not drawn) [Cpd 45, (E)-2-[1-(2,4-difluoro-phenyl)-7-(3-fluoro-benzyl)-5,5-dioxo-4,5,6,7-tetrahydro-1H-5λ^6-thiopyrano[4,3-c]pyrazol-3-yl]-ethenesulfonic acid piperidin-1-ylamide]: the inhibition at 0.2 µM is 8% in assay [1] (setting [3]) and 33% in assay [2] (setting [4]).

As to `O=C(NN1CCCCCC1)c1nn(-c2ccc(Cl)cc2Cl)c2c1CS(=O)(=O)C/C2=C\c1ccc(F)cc1` [Cpd 107, (7Z)-1-(2,4-dichloro-phenyl)-7-(4-fluoro-benzylidene)-5,5-dioxo-4,5,6,7-tetrahydro-1H-5λ^6-thiopyrano[4,3-c]pyrazole-3-carboxylic acid azepan-1-ylamide], the inhibition at 0.2 µM in assay [1] (setting [3]) was found to be 23%; in assay [2] (setting [4]) it was 92%.

Take `C[C@@H](NC(=O)c1nn(-c2ccc(Cl)cc2)c2c1CS(=O)(=O)C/C2=C\c1ccc(F)cc1)c1ccccc1` [Cpd 95, (7Z)-1-(4-chloro-phenyl)-7-(4-fluoro-benzylidene)-5,5-dioxo-4,5,6,7-tetrahydro-1H-5λ^6-thiopyrano[4,3-c]pyrazole-3-carboxylic acid [(1R)-1-phenyl-ethyl]-amide]: the inhibition at 0.2 µM in assay [1] is 15%. The compound also gave a pIC50 in assay [2] of 8.05.

`O=C(NN1CC2CCCC2C1)c1nn(-c2ccc(Cl)cc2Cl)c2c1CSC/C2=C\c1ccc(F)cc1` (stereo not drawn) [Cpd 116, (7Z)-1-(2,4-dichloro-phenyl)-7-(4-fluoro-benzylidene)-1,4,6,7-tetrahydro-thiopyrano[4,3-c]pyrazole-3-carboxylic acid (hexahydro-cyclopenta[c]pyrrol-2-yl)-amide]: the inhibition at 0.2 µM in assay [1] (setting [3]) is 18%. The pIC50 in assay [2] was 7.96.

On to `C[C@@H](NC(=O)c1nn(-c2ccc(Cl)cc2Cl)c2c1CSC/C2=C\c1ccc(F)cc1)c1ccccn1` [Cpd 127, (7Z)-1-(2,4-dichloro-phenyl)-7-(4-fluoro-benzylidene)-1,4,6,7-tetrahydro-thiopyrano[4,3-c]pyrazole-3-carboxylic acid [(1R)-1-(pyridin-2-yl)-ethyl]-amide], for which the inhibition at 0.2 µM in assay [1] is 19%. The same compound gave a pIC50 in assay [2] of 8.15.

As to `O=C(NNc1ccc(Cl)cc1Cl)c1nn(-c2ccc(Cl)cc2Cl)c2c1C[S+]([O-])C/C2=C\c1ccc(F)cc1` (stereo not drawn) [Cpd 77, (7Z)-1-(2,4-dichloro-phenyl)-7-(4-fluoro-benzylidene)-5-oxo-4,5,6,7-tetrahydro-1H-5λ^4-thiopyrano[4,3-c]pyrazole-3-carboxylic acid N′-(2,4-dichloro-phenyl)-hydrazide], the inhibition at 0.2 µM in assay [1] (setting [3]) came to 9%; in assay [2] (setting [4]), 55%.

`O=C(NN1CCCCC1)c1c2c(nn1-c1ccc(Cl)cc1Cl)/C(=C/c1ccc(F)cc1)CSC2` [Cpd 88, (7Z)-2-(2,4-dichloro-phenyl)-7-(4-fluoro-benzylidene)-2,4,6,7-tetrahydro-thiopyrano[4,3-c]pyrazole-3-carboxylic acid piperidin-1-ylamide]: the inhibition at 0.2 µM was 9% in assay [1] (setting [3]) and 46% in assay [2] (setting [4]).

Consider `O=C(N[C@H]1CCCC[C@@H]1O)c1nn(-c2ccc(Cl)cc2Cl)c2c1CS(=O)(=O)C/C2=C\c1ccc(F)cc1` [Cpd 68, (7Z)-1-(2,4-dichloro-phenyl)-7-(4-fluoro-benzylidene)-5,5-dioxo-4,5,6,7-tetrahydro-1H-5λ^6-thiopyrano[4,3-c]pyrazole-3-carboxylic acid [(1S,2S)-2-hydroxy-cyclohexyl]-amide], for which the inhibition at 0.2 µM in assay [1] (setting [3]) amounted to 19%; in assay [2] (setting [4]) it was 52%.

Consider `C[C@H](NS(=O)(=O)/C=C/c1nn(Cc2ccccc2)c2c1CS(=O)(=O)CC2)c1ccccc1` [Cpd 18, (E)-2-(1-benzyl-5,5-dioxo-4,5,6,7-tetrahydro-1H-5λ^6-thiopyrano[4,3-c]pyrazol-3-yl)-ethenesulfonic acid [(1S)-1-phenyl-ethyl]-amide], for which the inhibition at 1 µM in assay [1] (test concentration 1 μM (superscript b)) was found to be 40%; in assay [2] (test concentration 1 μM (superscript b), read-out: CB1 binding percent inhibition), 0%.

As for `O=C(NCc1ccccn1)c1nn(-c2ccc(Cl)cc2Cl)c2c1CSC/C2=C\c1ccc(F)cc1` [Cpd 72, (7Z)-1-(2,4-dichloro-phenyl)-7-(4-fluoro-benzylidene)-1,4,6,7-tetrahydro-thiopyrano[4,3-c]pyrazole-3-carboxylic acid (pyridin-2-ylmethyl)-amide], the values for the inhibition at 0.2 µM in assay [1] (setting [3]) and in assay [2] (setting [4]) were 10% and 48%, respectively.

Take `C[C@@H](NC(=O)c1nn(-c2ccc(Cl)cc2Cl)c2c1CSC/C2=C\c1ccc(Br)cc1)c1ccccc1` [Cpd 129, (7Z)-(4-Bromo-benzylidene)-1-(2,4-dichloro-phenyl)-1,4,6,7-tetrahydro-thiopyrano[4,3-c]pyrazole-3-carboxylic acid [(1R)-1-phenyl-ethyl]-amide]: in assay [1], the inhibition at 0.2 µM is 26%. The same compound showed a pIC50 in assay [2] of 8.22.

Take `O=C(NN1CCCCCC1)c1nn(-c2ccc(Cl)cc2Cl)c2c1CSC/C2=C\c1ccc(F)cc1` [Cpd 112, (7Z)-1-(2,4-dichloro-phenyl)-7-(4-fluoro-benzylidene)-1,4,6,7-tetrahydro-thiopyrano[4,3-c]pyrazole-3-carboxylic acid azepan-1-ylamide]: in assay [1] (setting [3]), the inhibition at 0.2 µM amounted to 8%. Besides, in assay [2], the pIC50 was 8.00.

Regarding `C[C@H](NC(=O)/C=C/c1nn(Cc2ccccc2)c2c1CSCC2)c1ccccc1` [Cpd 32, (2E)-3-(1-benzyl-1,4,6,7-tetrahydro-thiopyrano[4,3-c]pyrazol-3-yl)-N-[(1S)-1-phenyl-ethyl]-acrylamide], the inhibition at 10 µM came to 47% in assay [1] (test concentration 10 μM (superscript c)) and 35% in assay [2] (test concentration 10 μM (superscript c), read-out: CB1 binding percent inhibition).

Take `O=C(NN1CCCC1)c1nn(-c2ccc(Cl)cc2)c2c1CSC/C2=C\c1ccc(F)cc1` [Cpd 102, (7Z)-1-(4-chloro-phenyl)-7-(4-fluoro-benzylidene)-1,4,6,7-tetrahydro-thiopyrano[4,3-c]pyrazole-3-carboxylic acid pyrrolidin-1-ylamide]: the results for the inhibition at 0.2 µM in assay [1] (setting [3]) and in assay [2] (setting [4]) were 23% and 76%, respectively.

`O=S1(=O)Cc2c(/C=C/S(=O)(=O)NN3CCOCC3)nn(-c3ccc(F)cc3F)c2C(Cc2cccc(F)c2)C1` (stereo not drawn) [Cpd 44, (E)-2-[1-(2,4-difluoro-phenyl)-7-(3-fluoro-benzyl)-5,5-dioxo-4,5,6,7-tetrahydro-1H-5λ^6-thiopyrano[4,3-c]pyrazol-3-yl]-ethenesulfonic acid morpholin-4-ylamide]: the results for the inhibition at 0.2 µM in assay [1] (setting [3]) and in assay [2] (setting [4]) were 9% and 3%, respectively.
